Values of other authors in patent US6555530B1, “Use of estrogens and delta-gonadien-21-Ol-3,20-diones for treating insulin dependent and non-insulin dependent diabetes” (Novo Nordisk A/S, priority 1999, dated 2003).

What was measured:
[1] = test system: intact or ovarectomized female rats; conditions: correlated to morphological changes in muscle
[2] = test system: streptozotocin diabetic rats; conditions: implanted testosterone

C[C@]12CC[C@H]3[C@@H](CCC4=CC(=O)CC[C@@]43C)[C@@H]1CC[C@@H]2O [Testosterone]
insulin resistance [1]: marked insulin resistance | glycemic control by residual insulin [2]: antagonized the ability of residual insulin to maintain glycemic control
